Patent publication US20250154141A1 (University of Florida Research Foundation, Incorporated, priority 2021, published 2025)
Read-outs that look alike come from different tables or passages of the source.

Columns and labels:
Type in all cases: cell-based
MOLT-4 = assay: Cell viability assay (MTS) in MOLT-4 cells; conditions: Homo sapiens
Description: (§1) Acute lymphoblastic leukemia cells (MOLT-4 and RS4; 11) were incubated with increasing concentrations of Bcl-xL degraders for 48 h. Cell viability was measured by tetrazolium-based MTS assay.

RS4; 11 = assay: Cell viability assay (MTS) in RS4; 11 cells; conditions: Homo sapiens
Description: as §1

human platelets = assay: Platelet toxicity assay (MTS viability); conditions: for IC50: Platelet, 48 h, human platelets; for Platelets/MOLT-4 IC50 Fold change: ratio of platelet IC50 to MOLT-4 IC50
Description: Platelet-rich plasma (PRP) was purchased from Life South Community Blood Centers (Gainesville, FL, USA). PRP was transferred into a 50 mL tube containing 5 mL of the acid citrate buffer (Cat. No. sc-214744, Santa Cruz Biotechnology). To prevent clotting, prostaglandin E1 (PGE1, Cat. No. sc-201223A, Santa Cruz Biotechnology, Dallas, TX, USA) and apyrase (Cat. No. A6237, Sigma-Aldrich, St. Louis, MO, USA) were added to final concentrations of […] and 0.2 U/mL, respectively. After gently mixing the solution, platelets were pelleted by centrifugation at 1200 g for 10 min without break. Pelleted platelets were gently washed without disturbing platelets using 2 mL of HEPES Tyrode's buffer (Cat. No. PY-921WB, Boston BioProducts, Ashland, MA, USA) containing […] PGE1 and 0.2 U/mL apyrase. After washing, pellets were gently suspended in 10 mL of HEPES Tyrode's buffer containing […] PGE1 and 0.2 U/mL apyrase. Then, the platelet number was counted using a HEMAVET 950FS hematology analyzer (Drew Scientific, Inc., Oxford, CT, USA). For viability assays, the platelet number was adjusted to 2×10^8/mL in HEPES Tyrode's buffer containing […] PGE1 and 0.2 U/mL apyrase. Each treatment was given in 2 mL of the platelet suspension in 15 mL polypropylene tubes. The tubes were placed on a rotating platform at room temperature, and the viability of platelets was measured after 48 h treatment by using the MTS reagent (Cat. No. G1111, Promega, Madison, WI, USA). The data were analyzed by the GraphPad Prism 7 software for the calculation of IC50 values.

Bcl-xL [1] = biological target: T1, Bcl-xL (Homo sapiens, UniProt Q07817); assay: Protein degradation assay in Jurkat cells (Western blot), Bcl-xL; set-up: endogenous in cells; host or cells: Jurkat cells; conditions: for degradation of BCL-XL by Western blotting analysis: FIG. 1, 16 hours
T1 sequence (Q07817 whole entry): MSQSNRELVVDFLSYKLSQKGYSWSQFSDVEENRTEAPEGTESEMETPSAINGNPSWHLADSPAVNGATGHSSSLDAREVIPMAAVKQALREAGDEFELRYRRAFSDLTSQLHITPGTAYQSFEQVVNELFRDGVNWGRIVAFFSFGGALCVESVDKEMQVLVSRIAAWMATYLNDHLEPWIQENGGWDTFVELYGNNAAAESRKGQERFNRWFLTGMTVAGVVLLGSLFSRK
Description: (§2) Jurkat cells and human platelets were incubated with increasing concentrations of test compounds for 16 h. The cells were harvested and lysed in RIPA lysis buffer supplemented with protease and phosphatase inhibitor cocktails. An equal amount of protein ([…]) was resolved on a pre-cast 4-20% SDS-PAGE gel. Proteins were subsequently transferred to NOVEX PVDF membranes by electrophoresis. The membranes were blocked in blocking buffer (5% non-fat dry milk in TBS-T), and incubated with primary antibodies (at optimized concentrations) overnight at 4° C. After three washings in TBS-T, the membranes were incubated with an appropriate FIRP-conjugated secondary antibody for 1 h at room temperature. After extensive washing for three times, the proteins of interest was detected with ECL western blotting detection reagents and recorded with autoradiography (Pierce Biotech, Rockford, IL, USA). The primary antibodies for Bcl-xL (Cat #2762), Bcl-2 (Cat #2872), Mcl-1 (Cat #5453) and j-actin (Cat #4970) were purchased from Cell Signaling Technology. The relative band intensity was measured using ImageJ software and normalized to β-actin.

Bcl-2 [2] = biological target: T2, Bcl-2 (Homo sapiens, UniProt P10415); assay: Protein degradation assay in Jurkat cells (Western blot), Bcl-2; set-up: endogenous in cells; host or cells: Jurkat cells; conditions: for degradation of BCL-2 by Western blotting analysis: FIG. 1, 16 hours
T2 sequence (P10415 whole entry): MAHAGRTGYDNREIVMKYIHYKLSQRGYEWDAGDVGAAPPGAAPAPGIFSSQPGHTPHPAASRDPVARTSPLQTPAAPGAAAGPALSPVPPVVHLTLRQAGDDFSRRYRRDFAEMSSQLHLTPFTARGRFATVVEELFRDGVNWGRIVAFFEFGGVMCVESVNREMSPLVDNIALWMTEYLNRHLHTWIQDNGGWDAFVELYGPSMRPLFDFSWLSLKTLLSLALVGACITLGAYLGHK
Description: as §2

Bcl-xL [3] = biological target: T1, Bcl-xL; assay: Protein degradation assay in human platelets (Western blot), Bcl-xL; set-up: endogenous in cells; host or cells: human platelets; conditions: FIG. 4, 16 h
Description: as §2

Bcl-2 [4] = biological target: T2, Bcl-2; assay: Protein degradation assay in human platelets (Western blot), Bcl-2; set-up: endogenous in cells; host or cells: human platelets; conditions: FIG. 4, 16 h
Description: as §2

[5] = MOLT-4, Table 2, 48 hr, MTS, read-out: Anti-Cancer Activity IC50 (48 hr) MOLT-4
[6] = RS4-11, Table 2, 48 hr, MTS, read-out: Anti-Cancer Activity IC50 (48 hr) RS4, 11
[7] = MOLT-4, 48 h, read-out: Anti-Cancer Activity IC50 (48 hr) MOLT-4
[8] = RS4-11, 48 h, read-out: Anti-Cancer Activity IC50 (48 hr) RS4, 11
[9] = FIGS. 2-3, increasing concentrations 16 hours, 100 nM for various durations
[10] = FIGS. 2C, 3C, 16 h treatment, wash-off, cultured without compound 0 to 48
[11] = MOLT-4, Table 3, 48 h, mean of two independent experiments in triplicates, read-out: MOLT-4 48 h IC50
[12] = Homo sapiens, Table 3, mean of two independent experiments in triplicates, read-out: Platelets 48 h IC50

For `Cc1ncsc1-c1ccc([C@H](C)NC(=O)[C@@H]2C[C@@H](O)CN2C(=O)[C@@H](NC(=O)CCCCCCC(=O)N2CCN(CC3(C)CCC(c4ccc(Cl)cc4)=C(CN4CCN(c5ccc(C(=O)NS(=O)(=O)c6ccc(N[C@H](CCN7C[C@H]8C[C@@H]7CO8)CSc7ccccc7)c(S(=O)(=O)C(F)(F)F)c6)cc5)CC4)C3)CC2)C(C)(C)C)cc1` (stereo partly shown) [Compound 65], the IC50 (MOLT-4; [5]) was < 20 nM, the IC50 (MOLT-4; MOLT-4, Table 6, 48 h, read-out: MOLT-4 48 h IC50) was 2.8 nM and the IC50 (RS4; 11; [6]) was < 20 nM. For the same compound, the IC50 (RS4; 11; RS4-11, Table 6, 48 h, read-out: RS4 48 h IC50) was 4.2 nM, the IC50 (human platelets; Homo sapiens, Table 6, 4 th time, read-out: Platelets 4 th time 48 h IC50) was 1600 nM and the “Platelets/MOLT-4 IC50 Fold change” value (human platelets; Table 6) was 711. For the same compound, the “degradation of BCL-XL by Western blotting analysis” value (Bcl-xL [1]) was “exemplary degradation” and the “degradation of BCL-2 by Western blotting analysis” value (Bcl-2 [2]) was “exemplary degradation”.

`Cc1ncsc1-c1ccc([C@H](C)NC(=O)[C@@H]2C[C@@H](O)CN2C(=O)[C@@H](NC(=O)CN2CCN(CC(=O)N3CCN(CC4(C)CCC(c5ccc(Cl)cc5)=C(CN5CCN(c6ccc(C(=O)NS(=O)(=O)c7ccc(N[C@H](CCN8C[C@H]9C[C@@H]8CO9)CSc8ccccc8)c(S(=O)(=O)C(F)(F)F)c7)cc6)CC5)C4)CC3)CC2)C(C)(C)C)cc1` (stereo partly shown) [Compound 68] was tested, and the IC50 (MOLT-4; [7]) was < 20 nM, the IC50 (MOLT-4; MOLT-4, 48 h, read-out: MOLT-4 48 h IC50) was 3.2 nM and the IC50 (RS4; 11; [8]) was < 20 nM. For the same compound, the IC50 (RS4; 11; RS4-11, 48 h, read-out: RS4 48 h IC50) was 5 nM, the IC50 (human platelets; Table 3, mean of two independent experiments in triplicates, read-out: Platelets 48 h IC50) was 777 nM and the IC50 (human platelets; Table 6, 4 th time, read-out: Platelets 4 th time 48 h IC50) was 777 nM. For the same compound, the “Platelets/MOLT-4 IC50 Fold change” value (human platelets; Table 3) was 240, the “Platelets/MOLT-4 IC50 Fold change” value (human platelets; Table 6) was 240 and the “degradation of BCL-XL by Western blotting analysis” value (Bcl-xL [1]) was “exemplary degradation”. The “degradation of Bcl-xL (immunoblot)” value (Bcl-xL [1]; [9]) was “dose- and time-dependently degraded”, the “duration of Bcl-xL degradation after wash-off” value (Bcl-xL [1]; [10]) was “long-lasting” and the “degradation of BCL-2 by Western blotting analysis” value (Bcl-2 [2]) was “exemplary degradation”. The “degradation of Bcl-2 (immunoblot)” value (Bcl-2 [2]; [9]) was “dose- and time-dependently degraded”, the “duration of Bcl-2 degradation after wash-off” value (Bcl-2 [2]; [10]) was “long-lasting” and the “Bcl-xL expression levels in human platelets” value (Bcl-xL [3]) was “do not affect”. The “Bcl-2 expression levels in human platelets” value (Bcl-2 [4]) was “do not affect”.

For `Cc1ncsc1-c1ccc([C@H](C)NC(=O)[C@@H]2C[C@@H](O)CN2C(=O)[C@@H](NC(=O)CCCCCCC(=O)N2CCN(CC3(C)CCC(c4ccc(Cl)cc4)=C(CN4CCN(c5ccc(C(=O)NS(=O)(=O)c6ccc(N[C@H](CCN(C)CCO)CSc7ccccc7)c([N+](=O)[O-])c6)cc5)CC4)C3)CC2)C(C)(C)C)cc1` (stereo partly drawn) [Compound 41, (2S,4R)-1-((2S)-2-(8-(4-((4′-chloro-6-((4-(4-(((4-(((R)-4-((2-hydroxyethyl)(methyl)amino)-1-(phenylthio)butan-2-yl)amino)-3-nitrophenyl)sulfonyl)carbamoyl)phenyl)piperazin-1-yl)methyl)-4-methyl-2,3,4,5-tetrahydro-[1,1′-biphenyl]-4-yl)methyl)piperazin-1-yl)-8-oxooctanamido)-3,3-dimethylbutanoyl)-4-hydroxy-N—((S)-1-(4-(4-methylthiazol-5-yl)phenyl)ethyl)pyrrolidine-2-carboxamide], the IC50 (MOLT-4; [5]) was 20 to 100 nM, the IC50 (MOLT-4; [11]) was 38.1 nM and the IC50 (RS4; 11; [6]) was < 20 nM. For the same compound, the IC50 (human platelets; [12]) was 4900 nM and the “Platelets/MOLT-4 IC50 Fold change” value (human platelets; Table 3) was 128.

In the case of `Cc1ncsc1-c1ccc([C@H](C)NC(=O)[C@@H]2C[C@@H](O)CN2C(=O)[C@@H](NC(=O)CN2[C@@H]3CC[C@H]2CN(CC(=O)N2CCN(CC4(C)CCC(c5ccc(Cl)cc5)=C(CN5CCN(c6ccc(C(=O)NS(=O)(=O)c7ccc(N[C@H](CCN8CCOCC8)CSc8ccccc8)c(S(=O)(=O)C(F)(F)F)c7)cc6)CC5)C4)CC2)C3)C(C)(C)C)cc1` (stereo partly shown) [Compound 32], the IC50 (MOLT-4; [7]) is reported as < 20 nM, the IC50 (RS4; 11; [8]) is reported as < 20 nM and the “degradation of BCL-XL by Western blotting analysis” value (Bcl-xL [1]) is reported as “exemplary degradation”. For the same compound, the “degradation of BCL-2 by Western blotting analysis” value (Bcl-2 [2]) was “exemplary degradation”.

With `Cc1ncsc1-c1ccc([C@H](C)NC(=O)[C@@H]2C[C@@H](O)CN2C(=O)[C@@H](NC(=O)CN2CCC(CC(=O)N3CCN(CC4(C)CCC(c5ccc(Cl)cc5)=C(CN5CCN(c6ccc(C(=O)NS(=O)(=O)c7ccc(N[C@H](CCN8CCOCC8)CSc8ccccc8)c(S(=O)(=O)C(F)(F)F)c7)cc6)CC5)C4)CC3)CC2)C(C)(C)C)cc1` (stereo partly shown) [Compound 26] the IC50 (MOLT-4; [5]) was < 20 nM, the IC50 (RS4; 11; [6]) was 20 to 100 nM and the “degradation of BCL-XL by Western blotting analysis” value (Bcl-xL [1]) was “exemplary degradation”. The “degradation of BCL-2 by Western blotting analysis” value (Bcl-2 [2]) was “exemplary degradation”.

In the case of `Cc1ncsc1-c1ccc([C@H](C)NC(=O)[C@@H]2C[C@@H](O)CN2C(=O)[C@@H](NC(=O)CCCCCCC(=O)N2CCN(CC3(C)CCC(c4ccc(Cl)cc4)=C(CN4CCN(c5ccc(C(=O)NS(=O)(=O)c6ccc(N[C@H](CCN7CCCCC7)CSc7ccccc7)c([N+](=O)[O-])c6)cc5)CC4)C3)CC2)C(C)(C)C)cc1` (stereo partly drawn) [Compound 39, (2S,4R)-1-((2S)-2-(8-(4-((4′-chloro-4-methyl-6-((4-(4-(((3-nitro-4-(((R)-1-(phenylthio)-4-(piperidin-1-yl)butan-2-yl)amino)phenyl)sulfonyl)carbamoyl)phenyl)piperazin-1-yl)methyl)-2,3,4,5-tetrahydro-[1,1′-biphenyl]-4-yl)methyl)piperazin-1-yl)-8-oxooctanamido)-3,3-dimethylbutanoyl)-4-hydroxy-N—((S)-1-(4-(4-methylthiazol-5-yl)phenyl)ethyl)pyrrolidine-2-carboxamide], the IC50 (MOLT-4; [5]) is reported as < 20 nM, the IC50 (MOLT-4; [11]) is reported as 14.3 nM and the IC50 (RS4; 11; [6]) is reported as < 20 nM. For the same compound, the IC50 (RS4; 11; RS4-11, Table 5, 48 h, read-out: RS4 48 h IC50) was 8.4 nM, the IC50 (human platelets; [12]) was 4570 nM and the IC50 (human platelets; Homo sapiens, Table 5, read-out: Platelets 48 h IC50) was 4570 nM. For the same compound, the “Platelets/MOLT-4 IC50 Fold change” value (human platelets; Table 3) was 319.

For `Cc1ncsc1-c1ccc([C@H](C)NC(=O)[C@@H]2C[C@@H](O)CN2C(=O)[C@@H](NC(=O)CCCCCCC(=O)N2CCN(C[C@]3(C)CCC(c4ccc(Cl)cc4)=C(CN4CCN(c5ccc(C(=O)NS(=O)(=O)c6ccc(N[C@H](CCN(C)CCO)CSc7ccccc7)c(S(=O)(=O)C(F)(F)F)c6)cc5)CC4)C3)CC2)C(C)(C)C)cc1` [Compound 62], the IC50 (MOLT-4; [5]) was < 20 nM, the IC50 (MOLT-4; MOLT-4, Table 4, 48 h, read-out: MOLT-4 48 h IC50) was 21 nM and the IC50 (RS4; 11; [6]) was < 20 nM. The IC50 (RS4; 11; RS4-11, Table 4, 48 h, read-out: RS4 48 h IC50) was < 7 nM and the IC50 (human platelets; Homo sapiens, Table 4, read-out: Platelets 48 h IC50) was > 10000 nM.
